As a reminder, the DC50 is the concentration at which degradation of the target reaches its halfway point. As a reminder, the Dmax is the greatest extent of degradation seen.

Structures are written as SMILES.

The target of the experiment is T1, HPK1 (Homo sapiens, UniProt Q92918).
T1 construct: A HiBiT tag was introduced by CRISPR on the N terminus of HPK1 in Jurkat cells; host or cells: Jurkat cells (ATCC TIB-152), monoclonal line with CRISPR knock-in of HiBiT at the endogenous HPK1 locus
Kind of experiment: HPK1 Cellular HiBit Degradation Assay. The class given is cell-based. The following applies: HiBiT HPK1 Jurkat cells, 24 hrs; for DC50: concentration at which 50% of HPK1 was remaining, read-out: DC50 Category; for Dmax: Jurkat, maximum degradation vs DMSO vehicle control, read-out: Dmax Category. The procedure, abridged: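 Jurkat cells with CRISPR N-terminal HiBiT-tagged endogenous HPK1 treated 24 h at 37 °C with 11-point, 3.16-fold dilutions (10 uM to 0.1 nM final). HiBiT lytic luminescence gives % HPK1 remaining versus DMSO, with parental cells as background. Four-parameter fit yields DC50; Dmax = 100 minus lowest % remaining.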

T1 sequence (Q92918 whole entry): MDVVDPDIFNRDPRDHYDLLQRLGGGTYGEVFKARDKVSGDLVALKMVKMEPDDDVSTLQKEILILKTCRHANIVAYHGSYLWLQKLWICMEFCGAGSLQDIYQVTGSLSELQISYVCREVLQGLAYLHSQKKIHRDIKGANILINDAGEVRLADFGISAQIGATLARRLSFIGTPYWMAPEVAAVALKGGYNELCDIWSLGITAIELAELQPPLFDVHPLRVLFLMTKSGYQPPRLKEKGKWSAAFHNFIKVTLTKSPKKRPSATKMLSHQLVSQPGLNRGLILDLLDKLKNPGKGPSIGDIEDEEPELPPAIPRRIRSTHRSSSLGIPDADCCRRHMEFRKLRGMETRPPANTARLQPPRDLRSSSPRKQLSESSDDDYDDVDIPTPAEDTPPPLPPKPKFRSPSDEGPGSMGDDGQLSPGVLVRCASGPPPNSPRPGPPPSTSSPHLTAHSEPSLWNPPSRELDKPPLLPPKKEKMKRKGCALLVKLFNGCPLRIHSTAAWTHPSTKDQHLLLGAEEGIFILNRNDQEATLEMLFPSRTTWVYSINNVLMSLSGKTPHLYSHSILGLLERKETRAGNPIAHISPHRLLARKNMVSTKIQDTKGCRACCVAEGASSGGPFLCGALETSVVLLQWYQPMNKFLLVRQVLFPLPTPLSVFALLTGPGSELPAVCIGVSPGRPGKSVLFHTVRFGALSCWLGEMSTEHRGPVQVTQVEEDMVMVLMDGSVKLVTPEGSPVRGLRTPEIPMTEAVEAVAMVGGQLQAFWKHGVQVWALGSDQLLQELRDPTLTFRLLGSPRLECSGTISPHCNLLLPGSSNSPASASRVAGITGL

For the molecule `CC(C)n1cnc2cc(-c3ccc4c(c3)N([C@H]3C[C@@H](N5CCCCC5)C3)C(=O)C43CCN(C(=O)C4(C#N)CCN(C(=O)C5CCN(c6ccc(C7CCC(=O)NC7=O)cc6)CC5)CC4)CC3)nc(NC3CC3)c21` (mixture of isomers) [Example 258, 4-({6-[4-(cyclopropylamino)-3-(propan-2-yl)-3H-imidazo[4,5-c]pyridin-6-yl]-2-oxo-1-[(1S,3S)-3-(piperidin-1-yl)cyclobutyl]-1,2-dihydrospiro[indole-3,4′-piperidin]-1′-yl}carbonyl)-1-(1-{4-[(3RS)-2,6-dioxopiperidin-3-yl]phenyl}piperidine-4-carbonyl)piperidine-4-carbonitrile], the DC50 was less than 100 nM and the Dmax was in the range of 70 to 85%.
The matching figures for `CC(C)n1cnc2cc(-c3ccc4c(c3)N([C@H]3C[C@@H](N5CCCCC5)C3)C(=O)C43CCN(C(=O)[C@@]45C[C@@H]4CN(C(=O)C4CCN(c6ccc(C7CCC(=O)NC7=O)cn6)CC4)C5)CC3)nc(NC3CC3)c21` (mixture of isomers) [Example 259, (3RS)-3-(6-{4-[(1S,5S)-1-({6-[4-(cyclopropylamino)-3-(propan-2-yl)-3H-imidazo[4,5-c]pyridin-6-yl]-2-oxo-1-[(1S,3S)-3-(piperidin-1-yl)cyclobutyl]-1,2-dihydrospiro[indole-3,4′-piperidin]-1′-yl}carbonyl)-3-azabicyclo[3.1.0]hexane-3-carbonyl]piperidin-1-yl}pyridin-3-yl)piperidine-2,6-dione]: less than 100 nM and 70 to 85%.
For `CC(C)n1cnc2cc(-c3ccc4c(c3)N([C@H]3C[C@@H](N5CCCCC5)C3)C(=O)C43CCN(C(=O)[C@H]4[C@@H]5CN(C(=O)C6CCN(c7ccc(C8CCC(=O)NC8=O)cn7)CC6)C[C@@H]54)CC3)nc(NC3CC3)c21` (mixture of isomers) [Example 260, (3RS)-3-(6-{4-[(1R,5S,6S)-6-({6-[4-(cyclopropylamino)-3-(propan-2-yl)-3H-imidazo[4,5-c]pyridin-6-yl]-2-oxo-1-[(1S,3S)-3-(piperidin-1-yl)cyclobutyl]-1,2-dihydrospiro[indole-3,4′-piperidin]-1′-yl}carbonyl)-3-azabicyclo[3.1.0]hexane-3-carbonyl]piperidin-1-yl}pyridin-3-yl)piperidine-2,6-dione] the same measures were less than 100 nM and 70 to 85%.
The matching figures for `CC(C)n1cnc2cc(-c3ccc4c(c3)N([C@H]3C[C@@H](N5CCCCC5)C3)C(=O)C43CCN(C(=O)[C@H]4C[C@H]5C[C@@H]4CN5C(=O)C4CCN(c5ccc(C6CCC(=O)NC6=O)cn5)CC4)CC3)nc(NC3CC3)c21` (mixture of isomers) [Example 261, (3RS)-3-(6-{4-[(1R,4S,5S)-5-({6-[4-(cyclopropylamino)-3-(propan-2-yl)-3H-imidazo[4,5-c]pyridin-6-yl]-2-oxo-1-[(1S,3S)-3-(piperidin-1-yl)cyclobutyl]-1,2-dihydrospiro[indole-3,4′-piperidin]-1′-yl}carbonyl)-2-azabicyclo[2.2.1]heptane-2-carbonyl]piperidin-1-yl}pyridin-3-yl)piperidine-2,6-dione]: less than 100 nM and 70 to 85%.
As for `CC(C)n1cnc2cc(-c3ccc4c(c3)N([C@H]3C[C@@H](N5CCCCC5)C3)C(=O)C43CCN(C(=O)[C@@H]4C[C@H]5CC[C@@H](C4)N5C(=O)C4CCN(c5ccc(C6CCC(=O)NC6=O)cc5)CC4)CC3)nc(NC3CC3)c21` (mixture of isomers) [Example 262, (3RS)-3-(4-{4-[(1R,3R,5S)-3-({6-[4-(cyclopropylamino)-3-(propan-2-yl)-3H-imidazo[4,5-c]pyridin-6-yl]-2-oxo-1-[(1S,3S)-3-(piperidin-1-yl)cyclobutyl]-1,2-dihydrospiro[indole-3,4′-piperidin]-1′-yl}carbonyl)-8-azabicyclo[3.2.1]Octane-8-carbonyl]piperidin-1-yl}phenyl)piperidine-2,6-dione], the DC50 is less than 100 nM and the Dmax fell in the range of 70 to 85%.
For `CC(C)n1cnc2cc(-c3ccc4c(c3)N([C@H]3C[C@@H](N5CCCCC5)C3)C(=O)C43CCN(C(=O)[C@]45C[C@H]4CN(C(=O)C4CCN(c6ccc(C7CCC(=O)NC7=O)cc6)CC4)C5)CC3)nc(NC3CC3)c21` (mixture of isomers) [Example 263, (3RS)-3-(4-{4-[(1R,5R)-1-({6-[4-(cyclopropylamino)-3-(propan-2-yl)-3H-imidazo[4,5-c]pyridin-6-yl]-2-oxo-1-[(1S,3S)-3-(piperidin-1-yl)cyclobutyl]-1,2-dihydrospiro[indole-3,4′-piperidin]-1′-yl}carbonyl)-3-azabicyclo[3.1.0]hexane-3-carbonyl]piperidin-1-yl}phenyl)piperidine-2,6-dione] the same measures were less than 100 nM and 50 to 70%.
For `CC(C)n1cnc2cc(-c3ccc4c(c3)N([C@H]3C[C@@H](N5CCCCC5)C3)C(=O)C43CCN(C(=O)[C@@H]4CCCN(C(=O)C5CCN(c6ccc(C7CCC(=O)NC7=O)cn6)CC5)C4)CC3)nc(NC3CC3)c21` (mixture of isomers) [Example 264, (3RS)-3-(6-{4-[(3R)-3-({6-[4-(cyclopropylamino)-3-(propan-2-yl)-3H-imidazo[4,5-c]pyridin-6-yl]-2-oxo-1-[(1S,3S)-3-(piperidin-1-yl)cyclobutyl]-1,2-dihydrospiro[indole-3,4′-piperidin]-1′-yl}carbonyl)piperidine-1-carbonyl]piperidin-1-yl}pyridin-3-yl)piperidine-2,6-dione] the same measures were less than 100 nM and 70 to 85%.
Take `CC(C)n1cnc2cc(-c3ccc4c(c3)N([C@H]3C[C@@H](N5CCCCC5)C3)C(=O)C43CCN(C(=O)[C@@H]4C[C@@H]5C[C@H]4CN5C(=O)C4CCN(c5ccc(C6CCC(=O)NC6=O)cn5)CC4)CC3)nc(NC3CC3)c21` (mixture of isomers) [Example 265, (3RS)-3-(6-{4-[(S,4R,5R)-5-({6-[4-(cyclopropylamino)-3-(propan-2-yl)-3H-imidazo[4,5-c]pyridin-6-yl]-2-oxo-1-[(1S,3S)-3-(piperidin-1-yl)cyclobutyl]-1,2-dihydrospiro[indole-3,4′-piperidin]-1′-yl}carbonyl)-2-azabicyclo[2.2.1]heptane-2-carbonyl]piperidin-1-yl}pyridin-3-yl)piperidine-2,6-dione]: the DC50 is less than 100 nM and the Dmax was in the range of 70 to 85%.
For `CC(C)n1cnc2cc(-c3ccc4c(c3)N([C@H]3C[C@@H](N5CCCCC5)C3)C(=O)C43CCN(C(=O)[C@@H]4[C@H]5CCN(C(=O)C6CCN(c7ccc(C8CCC(=O)NC8=O)cn7)CC6)[C@H]54)CC3)nc(Nc3ccccc3F)c21` (mixture of isomers) [Example 266, (3RS)-3-(6-{4-[(1R,5R,6R)-6-[(6-{4-[(2-fluorophenyl)amino]-3-(propan-2-yl)-3H-imidazo[4,5-c]pyridin-6-yl}-2-oxo-1-[(1S,3S)-3-(piperidin-1-yl)cyclobutyl]-1,2-dihydrospiro[indole-3,4′-piperidin]-1′-yl)carbonyl]-2-azabicyclo[3.1.0]hexane-2-carbonyl]piperidin-1-yl}pyridin-3-yl)piperidine-2,6-dione] the same measures were less than 100 nM and 70 to 85%.

Values taken from patent US12091426B2, “Bifunctional degraders of hematopoietic progenitor kinase and therapeutic uses thereof” (Nurix Therapeutics, Inc., priority 2021, dated 2024).
